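Exposure lasted 48 hours, with cells grown in 96-well plates and compounds tested at five concentrations. Abbreviation: GI50, concentration required for 50% inhibition of growth.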 Active and inactive are the calls of the source. Cut-off read from the data, not from the text of the source: active = GI50 up to about 1.1 µM and inactive = higher.
Tests used:
Test in all cases: growth of human tumour cells (NCI), 48 h
[1] = tested on: SK-MEL-28
[2] = tested on: MOLT-4
[3] = tested on: HCC 2998
[4] = tested on: HOP-62
[5] = tested on: U-251
[6] = tested on: MDA-MB-231
[7] = tested on: ACHN
[8] = tested on: SR
[9] = tested on: M14
[10] = tested on: MCF7
[11] = tested on: NCI-H226
[12] = tested on: OVCAR-5
[13] = tested on: CAKI-1
[14] = tested on: PC-3
[15] = tested on: NCI/ADR-RES
[16] = tested on: MDA-N
[17] = tested on: IGROV-1
[18] = tested on: OVCAR-8
[19] = tested on: DU-145

Measured: GI50

Cc1cc2c(nn1)CCc1c-2no[n+]1[O-]
inactive: [1] > 100 µM | [2] > 100 µM | [3] > 100 µM | [4] > 100 µM | [5] > 100 µM | [6] > 100 µM | [7] > 100 µM | [8] > 100 µM | [9] > 100 µM | [10] > 100 µM | [11] > 100 µM | [12] > 100 µM | [13] > 100 µM | [14] > 100 µM | [15] > 100 µM | [16] > 100 µM | [17] > 100 µM | [18] > 100 µM

Cc1ccc(S(=O)(=O)ON2C(=O)c3cccc4cc([N+](=O)[O-])cc(c34)C2=O)cc1
inactive: [1] > 100 µM | [2] 28.6 µM | [3] 23.8 µM | [4] > 100 µM | [5] > 100 µM | [6] 56.2 µM | [7] 62.1 µM | [8] 26.7 µM | [9] > 100 µM | [10] 33.7 µM | [11] 54.8 µM | [12] > 100 µM | [13] 55.8 µM | [19] 89.1 µM | [14] > 100 µM | [15] > 100 µM | [17] 40.6 µM | [18] > 100 µM

O=C(CN1C(=O)CC(c2ccccc2)(c2ccccc2)C1=O)N1CCN(CCO)CC1
inactive: [1] > 100 µM | [2] > 100 µM | [3] > 100 µM | [4] > 100 µM | [5] > 100 µM | [6] > 100 µM | [7] > 100 µM | [9] > 100 µM | [10] > 100 µM | [12] > 100 µM | [13] > 100 µM | [19] > 100 µM | [14] > 100 µM | [15] > 100 µM | [17] > 100 µM | [18] > 100 µM

COc1cccc2c1CCc1c(-c3ccc(F)cc3)cc(-c3ccc4ccccc4n3)nc1-2
inactive: [2] > 100 µM | [4] > 100 µM | [5] > 100 µM | [6] > 100 µM | [7] > 100 µM | [8] > 100 µM | [9] > 100 µM | [10] > 100 µM | [11] > 100 µM | [12] > 100 µM | [13] > 100 µM | [14] > 100 µM | [15] > 100 µM | [16] > 100 µM | [17] > 100 µM | [18] > 100 µM

N#C[C@H](c1nc2ccccc2s1)c1nc2ccccc2nc1Cl
inactive: [1] > 100 µM | [2] > 100 µM | [3] 2.67 µM | [4] 17.9 µM | [5] > 100 µM | [6] > 100 µM | [7] 14.2 µM | [8] > 100 µM | [9] 15.7 µM | [10] 5.56 µM | [11] > 100 µM | [12] 17.9 µM | [13] > 100 µM | [14] 31 µM | [15] > 100 µM | [16] > 100 µM | [17] > 100 µM | [18] > 100 µM

O=C(/C=C/c1cc(F)ccc1F)OCCc1ccccc1
inactive: [1] > 100 µM | [2] 49.3 µM | [3] > 100 µM | [4] > 100 µM | [5] 33 µM | [6] 63 µM | [7] > 100 µM | [8] 40.2 µM | [9] > 100 µM | [10] 42.2 µM | [11] > 100 µM | [12] > 100 µM | [13] > 100 µM | [14] 49.4 µM | [15] > 100 µM | [16] 91.4 µM | [17] > 100 µM | [18] > 100 µM

CCOC(=O)N1[C@@H]2CCC[C@@H]2C(=O)[C@@H]2CCC[C@@H]21
inactive: [1] > 100 µM | [2] > 100 µM | [3] > 100 µM | [4] > 100 µM | [5] > 100 µM | [6] > 100 µM | [7] > 100 µM | [8] > 100 µM | [9] > 100 µM | [11] > 100 µM | [12] > 100 µM | [13] > 100 µM | [19] > 100 µM | [14] > 100 µM | [15] > 100 µM | [16] > 100 µM | [17] > 100 µM | [18] > 100 µM

CC(=O)NC(CCCCN(Cc1ccccc1)C(=O)NCCCl)C(=O)NCc1ccccc1 (centres undefined)
inactive: [1] > 100 µM | [2] > 100 µM | [3] > 100 µM | [4] > 100 µM | [5] > 100 µM | [7] > 100 µM | [8] > 100 µM | [9] > 100 µM | [11] > 100 µM | [13] > 100 µM | [17] > 100 µM | [18] > 100 µM

Reference: ChEMBL document CHEMBL1201862, “PubChem BioAssay data set” (2004)
